Legend:
[1] = Measurement of average thickness increase of single hair fibers
Description: The fibers are then removed and allowed to equilibrate and dry overnight. • 4) The next day, the fibers are imaged and measured for a final reading. For each experiment, untreated control and product treatment controls are ran, and at least 5 fibers are measured per treatment. • 5) In order to measure increase in thickness as a function of treatment, the […]. The average thickness increase is reported in the Table above, with measurements reported in micrometers. Viscosity Test Method

[2] = Viscosity test method (cone and plate viscometer/rheometer); type: physicochemical; details: hair care composition (Example 1 formula) with 0.15% resorcinol of the given type, 1.89% Sepigel
Text: The viscosity of the hair care composition may be determined by a cone and plate viscometer/rheometer which measures the viscous drag resulting from the sample material contained in the gap between a rotating cone and a stationary plate. The geometry of the cone and plate may be such that the entire sample is subjected to a uniform shear rate.

Row | SMILES | average thickness increase compared to Resorcinol Type 2 and Type 3 (in words) ([1]; Example 1 formula, different types of resorcinol substituted) | Viscosity [2] | Average Thickness Increase ([1]; Example 1 formula with 0.15% resorcinol of the given type, 1.89% Sepigel, fibers treated 10 minutes, dried overnight, at least 5 fibers per treatment)
1 | Oc1ccc(Cl)c(O)c1 [Resorcinol 1, 4-Chlororesorcinol] | measurable average thickness increase |  | 
2 | Oc1cccc(O)c1 [Resorcinol 3, 1,3-Dihydroxybenzene] |  | 15958 cps | 3.5 μm

— US9649271B2, “Hair thickening compositions and methods of use” (The Procter & Gamble Company, priority 2013, dated 2017)
